Test results: patent US10794898B2, “High-throughput, high-precision methods for detecting protein structural changes in living cells” (REGENTS OF THE UNIVERSITY OF MINNESOTA, priority 2014, dated 2020)
Read-outs that look alike come from different tables or passages of the source.

How the values were obtained:
SERCA = target: T1, SERCA (Sus scrofa, UniProt P11607); assay: Enzyme-coupled, NADH-linked SERCA ATPase assay in pig cardiac SR; format: biochemical; set-up: inhibition of ATPase activity: dose or concentration left out as unconfirmed
T1 construct: Cardiac sarcoplasmic reticulum (SR) vesicles were prepared from the ventricular tissue of swine hearts; from tissue; host or cells: ventricular tissue of swine hearts (cardiac SR vesicles)
T1 sequence (P11607 1-997 isoform P11607-2): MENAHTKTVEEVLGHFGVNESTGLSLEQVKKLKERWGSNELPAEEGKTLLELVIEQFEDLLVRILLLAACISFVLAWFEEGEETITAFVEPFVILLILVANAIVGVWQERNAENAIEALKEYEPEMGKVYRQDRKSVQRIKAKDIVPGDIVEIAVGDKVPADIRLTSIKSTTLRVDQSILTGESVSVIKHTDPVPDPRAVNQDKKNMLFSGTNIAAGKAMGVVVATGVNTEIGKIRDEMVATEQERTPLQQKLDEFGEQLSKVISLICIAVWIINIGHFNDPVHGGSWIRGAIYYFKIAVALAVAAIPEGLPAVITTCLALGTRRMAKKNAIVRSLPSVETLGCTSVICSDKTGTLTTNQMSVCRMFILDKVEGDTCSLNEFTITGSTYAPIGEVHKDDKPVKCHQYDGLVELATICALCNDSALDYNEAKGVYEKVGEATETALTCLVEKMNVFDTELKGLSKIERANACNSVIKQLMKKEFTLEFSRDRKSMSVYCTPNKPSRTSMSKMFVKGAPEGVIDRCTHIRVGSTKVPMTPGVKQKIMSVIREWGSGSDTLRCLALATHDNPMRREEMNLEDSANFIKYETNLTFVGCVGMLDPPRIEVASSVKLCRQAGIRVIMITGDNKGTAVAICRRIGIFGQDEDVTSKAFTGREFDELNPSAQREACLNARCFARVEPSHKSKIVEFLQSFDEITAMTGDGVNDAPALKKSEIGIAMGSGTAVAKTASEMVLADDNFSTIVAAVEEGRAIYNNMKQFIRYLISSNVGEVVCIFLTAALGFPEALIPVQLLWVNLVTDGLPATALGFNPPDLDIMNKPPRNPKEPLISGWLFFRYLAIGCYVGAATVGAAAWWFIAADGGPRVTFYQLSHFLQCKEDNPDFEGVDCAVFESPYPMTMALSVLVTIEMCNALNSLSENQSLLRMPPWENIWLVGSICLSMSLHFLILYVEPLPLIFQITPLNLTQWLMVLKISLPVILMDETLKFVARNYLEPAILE
Experimental: An enzyme-coupled, NADH-linked ATPase assay was used to measure SERCA ATPase activity (Stergiopoulos et al., BMC Health Serv Res 2012, 12, 345). in 96-well microplates. Each well contained 50 mM MOPS (pH 7.0), 100 mM KCl, 5 mM MgCl2, 1 mM EGTA, 0.2 mM NADH, 1 mM phosphoenol pyruvate, 10 IU/mL of pyruvate kinase, 10 IU/mL of lactate dehydrogenase, 3.5 μg/mL of the calcium ionophore A23187, and CaCl2 added to set free [Ca^2+] to the desired values. (Mueller et al., Biochemistry 2004, 43, 8754-8765). 2.5 μg of cardiac SR or 25 μg of HEK cell homogenate were used in each well to correct for the difference in SERCA content. The assay was started upon the addition of ATP at a final concentration of 5 mM and read in a SpectraMax Plus microplate spectrophotometer (Molecular Devices, Sunnyvale, Calif.), bring the total volume to 200 μL. Results were normalized to SERCA content determined from immunoblotting.
Effects of known activators and LOPAC hits on SERCA ATPase activity was evaluated in pig cardiac SR. Compounds were dissolved in DMSO, and adjusted to […] the concentrations used in the final assay wells. 4 μL prediluted compounds were added to each well to keep the final [DMSO] at 2% (v/v).

GFP-SERCA2a = assay: Donor-only control: GFP lifetime in GFP-SERCA2a cells; format: cell-based, canine
Experimental: The 96-well plate format LOPAC library was reformatted into four 384-well polystyrene mother plates (Corning, Corning, N.Y.) using a Biomek FX liquid handler (Beckman Coulter, Brea, Calif.), and diluted to 500 μM using DMSO. Column 1, 22, 23 and 24 were loaded with DMSO for in-plate no-compound controls. The LOPAC compounds were distributed in column 2 through 21. Each plate contains 64 wells of DMSO controls, and 320 wells of compounds from the LOPAC library. Black well, high-quality-glass bottom Greiner 384-well microplates (PN 781892) were selected as the assay plates for their optical clarity, low autofluorescence, and low inter-well cross-talks. […] Cells were collected and pelleted for 5 min at 500 g and resuspended in 10 mL PBS, then analyzed on a Countess cell counter (Invitrogen) and diluted to 1×10^6 cells/mL. […] Assay plates were spun for 1 min at 200 g and allowed to incubate at RT for 20 min before reading on a fluorescence lifetime plate reader (constructed in collaboration with Fluorescence Innovations, Inc., Minneapolis, Minn.). GFP fluorescence was excited with a 473 nm microchip laser from Concepts Research Corporation (Belgium, Wis.) and emission was filtered with 490 nm long pass and 520/35 nm band pass filters from Semrock (Rochester, N.Y.).
Time-resolved fluorescence waveforms for each well were fitted to single-exponential decays using global analysis software. […]

2-color SERCA2a (2CS) = target: T2, 2-color SERCA2a (2CS) (Canis lupus familiaris, UniProt O46674, INS508[…]); assay: Live-cell 2-color SERCA (2CS) FRET assay in fluorescence lifetime plate reader; format: cell-based, canine; conditions: for LOPAC library screen outcome (2CS GFP lifetime outside 3SD window): hit = lifetime change more than 3 SD from DMSO controls, repeated
T2 construct: expressed in transfected cells
Text: Using recombinant DNA technology, the gene for TagRFP was fused to the N-terminus of canine SERCA2a. This fusion position is in the A-domain of the pump. EGFP was fused as an intrasequence tag before residue 509 in the N-domain. The structural model presented in FIG. 1A corresponds to the isoform SERCA1a, which is 84% homologous to SERCA2a. Hou et al. evaluated several intrasequence fusion positions chosen using x-ray crystal structures of SERCA1a to identify unstructured loops and predict large relative distance changes without affecting SERCA function. (Hou et al., PLoS ONE 2012, 7, e40369). The 509 site was chosen because the labeled construct had normal SERCA activity and its intramolecular FRET signal was sensitive to SERCA structural state, as shown below.
The 96-well plate format LOPAC library was reformatted into four 384-well polystyrene mother plates (Corning, Corning, N.Y.) using a Biomek FX liquid handler (Beckman Coulter, Brea, Calif.), and diluted to 500 μM using DMSO. Column 1, 22, 23 and 24 were loaded with DMSO for in-plate no-compound controls. The LOPAC compounds were distributed in column 2 through 21. Each plate contains 64 wells of DMSO controls, and 320 wells of compounds from the LOPAC library. Black well, high-quality-glass bottom Greiner 384-well microplates (PN 781892) were selected as the assay plates for their optical clarity, low autofluorescence, and low inter-well cross-talks. Compounds (1 μL) were transferred from the mother plates into assay plates using a Mosquito HV liquid handler (TTP Labtech Ltd, UK). The plates were sealed and stored at −20° C. until use. On the day of screening, the plates were equilibrated to room temperature (25° C.). Stable GFP-SERCA2a (donor only control) or 2CS cells were lifted from a 225 cm^2 flask by incubating with TrypLE (Invitrogen) for 5 min. Cells were collected and pelleted for 5 min at 500 g and resuspended in 10 mL PBS, then analyzed on a Countess cell counter (Invitrogen) and diluted to 1×10^6 cells/mL. 49 μL Cells were plated on top of the compounds by a FlexDrop IV reagent dispenser (PerkinElmer, Waltham, Mass.). Assay plates were spun for 1 min at 200 g and allowed to incubate at RT for 20 min before reading on a fluorescence lifetime plate reader (constructed in collaboration with Fluorescence Innovations, Inc., Minneapolis, Minn.). GFP fluorescence was excited with a 473 nm microchip laser from Concepts Research Corporation (Belgium, Wis.) and emission was filtered with 490 nm long pass and 520/35 nm band pass filters from Semrock (Rochester, N.Y.).
Time-resolved fluorescence waveforms for each well were fitted to single-exponential decays using global analysis software. Each plate contained 64 control wells with only DMSO, and a hit was defined as a compound that changed the 2CS donor lifetime by more than three times the standard deviation (SD) relative to the controls. Fluorescent compounds that caused the intensity of both untransfected HEK cells and 2CS cells to be more than 3SD outside the mean of the 64 controls on a plate were excluded from the hits as likely false positives.

Plasmodium falciparum = conditions: cited from earlier work
[1] = test system: Ca2+ uptake into microsomes; conditions: cited from earlier work

COc1cc(/C=C(\C#N)C(=O)Nc2nnc(C(F)(F)F)s2)ccc1OCc1ccc(C(F)(F)F)cc1C(F)(F)F [XCT 790]
effect on ATPase activity at the highest concentrations tested (SERCA): completely inhibit ATPase activity
effect on the lifetime of GFP-SERCA2a alone (GFP-SERCA2a): no effect
reduction of FRET (2-color SERCA2a (2CS); dose-response assay, concentration not given): ~42%
LOPAC library screen outcome (2CS GFP lifetime outside 3SD window) (2-color SERCA2a (2CS)): reproducible hits

Cc1ccc2cccc(NC(=O)c3ccc(OC(C)C)cc3)c2n1 [CDN1163]
mode of SERCA activation (SERCA): increasing the activity at saturating [Ca^2+]
effect on FRET between GFP and RFP in 2CS (2-color SERCA2a (2CS); dose-response, live cells): reduce FRET

[Cl-].c1ccc2c(c1)[I+]c1ccccc1-2 [DPI, diphenyline iodonium chloride]
inhibition of ATPase activity (SERCA): < 50%
functional (ATPase) inhibition (SERCA; below 10 μM): very little functional inhibition
IC50 for inhibition of parasite growth (Plasmodium falciparum): submicromolar
inhibition of Ca2+ uptake into microsomes ([1]; 30 µM): 18%
inhibition of Ca2+ uptake into microsomes ([1]; 100 µM): 32%
FRET efficiency at maximal effect (2-color SERCA2a (2CS); basal FRET 0.12): 0.10
LOPAC library screen outcome (2CS GFP lifetime outside 3SD window) (2-color SERCA2a (2CS)): reproducible hits
maximal reduction of FRET (2-color SERCA2a (2CS); maximal effect in dose-response): ~18%

CC(=O)C1=C(O)[C@@H]2[C@H]3c4c[nH]c5cccc(c45)C[C@H]3C(C)(C)N2C1=O [CPA, cyclopiazonic acid]
Kd (SERCA): ~0.04 µM

C/C=C(/C)C(=O)O[C@H]1C(C)=C2[C@H]([C@@H]1OC(=O)CCCCCCC)[C@@](C)(OC(C)=O)C[C@H](OC(=O)CCC)[C@@]1(O)[C@H]2OC(=O)[C@@]1(C)O [TG, thapsigargin]
ATPase activity (SERCA; at 7.5 nM): nearly ablated
effect on ATPase activity at the highest concentrations tested (SERCA): completely inhibit ATPase activity
reduction of FRET (2-color SERCA2a (2CS); at 7.5 nM): ~33%
LOPAC library screen outcome (2CS GFP lifetime outside 3SD window) (2-color SERCA2a (2CS)): reproducible hits
